In patent US10975037B2 (priority 2018, dated 2021):
pIC50, pKd: −log10 of the molar value. Where two headings read alike, the source gives them in different places. Marks after values point to notes of the source that are not given here.

Key:
[1] = target: full-length human RORγt (Homo sapiens (Human), UniProt P51449); assay: RORγt (full-length human) reporter assay, conditions A or B, HEK293T cells; assay type: cell-based; conditions: for inhibition at […] / inhibition at 3 µM / inhibition at 1 µM / inhibition at 0.67 µM / inhibition at 2 µM: read-out: RORγt (FL) Reporter Assay A or B, % inhibition; for inhibition at 1 µM: 1 μM compound concentration (footnote ***); for inhibition at 0.67 µM: 0.67 μM compound concentration (footnote ****); for inhibition at 2 µM: 2 μM compound concentration
Procedure, shortened: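 After 16–20 h, dual firefly/Renilla luciferase luminescence was read. Firefly signal was normalized to DMSO and saturating reference compound, then to Renilla, and fitted for IC50; % inhibition is versus DMSO.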

[2] = target: human RORγt ligand binding domain (RORγt LBD) (Homo sapiens (Human), UniProt P51449); assay: RORγt ThermoFluor® assay (thermal shift binding)
Procedure, shortened: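 Thermal shift with 0.065 mg/mL RORγt LBD and 60 μM 1,8-ANS in 100 mM Hepes pH 7.0, 10 mM NaCl, 2.5 mM GSH, 0.002% Tween-20.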

[3] = 3 μM compound concentration (footnote *)
[4] = HEK293T cells, read-out: RORγt (FL) Reporter Assay A or B, IC50
[5] = read-out: ThermoFluor® Assay, Kd
[6] = RORγt (FL) Reporter Assay A or B, IC50, HEK293T cells
[7] = HEK-293T, 3 μM compound concentration (footnote *)
[8] = HEK-293T, 0.22 μM compound concentration (footnote *******)

full-length human RORγt, sequence (P51449 other isoform, or with tags, fused parts or gaps): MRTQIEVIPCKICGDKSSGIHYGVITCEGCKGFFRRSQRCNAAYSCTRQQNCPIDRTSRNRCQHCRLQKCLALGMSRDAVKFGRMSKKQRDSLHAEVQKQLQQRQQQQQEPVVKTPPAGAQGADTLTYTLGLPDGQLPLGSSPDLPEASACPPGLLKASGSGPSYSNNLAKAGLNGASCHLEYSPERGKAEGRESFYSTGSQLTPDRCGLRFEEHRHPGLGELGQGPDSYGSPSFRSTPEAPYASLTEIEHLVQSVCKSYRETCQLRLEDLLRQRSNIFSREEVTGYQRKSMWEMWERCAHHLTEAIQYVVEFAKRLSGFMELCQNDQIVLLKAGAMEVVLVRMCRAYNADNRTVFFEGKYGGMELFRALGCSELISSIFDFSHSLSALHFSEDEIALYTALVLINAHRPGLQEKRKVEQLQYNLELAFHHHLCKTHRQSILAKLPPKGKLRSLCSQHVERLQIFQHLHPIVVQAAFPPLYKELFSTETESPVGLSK
human RORγt ligand binding domain (RORγt LBD), sequence (P51449 other isoform, or with tags, fused parts or gaps): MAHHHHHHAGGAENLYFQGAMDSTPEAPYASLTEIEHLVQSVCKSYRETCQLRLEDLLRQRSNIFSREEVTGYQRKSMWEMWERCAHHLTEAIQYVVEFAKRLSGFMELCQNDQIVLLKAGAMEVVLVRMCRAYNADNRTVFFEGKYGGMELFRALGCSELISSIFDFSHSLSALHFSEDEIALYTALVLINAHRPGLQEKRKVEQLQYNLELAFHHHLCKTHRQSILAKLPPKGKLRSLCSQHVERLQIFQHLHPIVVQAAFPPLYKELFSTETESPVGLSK

| Compound | pKd [2, 5] | pIC50 [1, 6] | also measured |
| --- | --- | --- | --- |
| CCn1nc(C(=O)NC[C@H]2CC[C@H](S(=O)(=O)NC(N)=O)CC2)c(Cl)c1-c1ccc(CC(C)(C)C(F)(F)F)cc1OC(F)F [Example 69, N-(((1r,4r)-4-(N-Carbamoylsulfamoyl)cyclohexyl)methyl)-4-chloro-5-(2-(difluoromethoxy)-4-(3,3,3-trifluoro-2,2-dimethylpropyl)phenyl)-1-ethyl-1H-pyrazole-3-carboxamide] | 9.54 |  | RORγt (FL) Reporter Assay A or B, % inhibition [1, 3]: 100* %; pIC50 [1, 4]: 7.29 |
| CCn1nc(C(=O)NC[C@]2(O)CC[C@@H](S(C)(=O)=O)CC2)c(Cl)c1-c1ccc(C(O)CCC(F)(F)F)cc1OC(F)F (some centres unmarked) [Example 98, 4-Chloro-5-(2-(difluoromethoxy)-4-(4,4,4-trifluoro-1-hydroxybutyl)phenyl)-1-ethyl-N-(((1s,4s)-1-hydroxy-4-(methylsulfonyl)cyclohexyl)methyl)-1H-pyrazole-3-carboxamide] | 6.51 | 7.15 | inhibition at 3 µM [1, 7]: 89% |
| CCn1nc(C(=O)NC[C@H]2CC[C@H](S(=O)(=O)NC(=O)NC)CC2)c(Cl)c1-c1ccc(CC(C)(C)C(F)(F)F)cc1OC(F)F [Example 71, 4-Chloro-5-(2-(difluoromethoxy)-4-(3,3,3-trifluoro-2,2-dimethylpropyl)phenyl)-1-ethyl-N-(((1r,4r)-4-(N-(methylcarbamoyl)sulfamoyl)cyclohexyl)methyl)-1H-pyrazole-3-carboxamide] | 9.64 |  | RORγt (FL) Reporter Assay A or B, % inhibition [1, 3]: 114* %; pIC50 [1, 4]: 7.89 |
| CCn1nc(C(=O)NC[C@H]2CC[C@H](S(C)(=O)=O)CC2)c(C)c1-c1ccc(CCC(F)(F)F)cc1OC [Example 226, 1-Ethyl-5-(2-methoxy-4-(3,3,3-trifluoropropyl)phenyl)-4-methyl-N-(((1r,4r)-4-(methylsulfonyl)cyclohexyl)methyl)-1H-pyrazole-3-carboxamide] | 7.92 | 7.42 | inhibition at 0.67 µM ([1]; HEK-293T): 71% |
| CCc1c(C(=O)NC[C@H]2CC[C@H](S(C)(=O)=O)CC2)nn(CC)c1-c1ccc(N[C@H](C)C(F)(F)F)cc1OC [Example 130, 1,4-Diethyl-5-(2-methoxy-4-(((R)-1,1,1-trifluoropropan-2-yl)amino)phenyl)-N-(((r,4R)-4-(methylsulfonyl)cyclohexyl)methyl)-1H-pyrazole-3-carboxamide] | 8.00 | 7.21 | inhibition at 2 µM ([1]; HEK-293T): 100% |
| CCn1nc(C(=O)NC[C@]2(O)CC[C@@H](S(C)(=O)=O)CC2)c(Cl)c1-c1ccc(CC(C)(C)C(F)(F)F)cc1C#N [Example 88, 4-Chloro-5-(2-cyano-4-(3,3,3-trifluoro-2,2-dimethylpropyl)phenyl)-1-ethyl-N-(((1s,4s)-1-hydroxy-4-(methylsulfonyl)cyclohexyl)methyl)-1H-pyrazole-3-carboxamide] | 7.82 | 6.89 | inhibition at 3 µM ([1]; HEK-293T): 88% |
| CCn1nc(C(=O)NC[C@]2(O)CC[C@@H](S(C)(=O)=O)CC2)c(Cl)c1-c1c(F)cc(C[C@H](C)C(F)(F)F)cc1F (single isomer, unassigned) [Example 198, 4-Chloro-5-(2,6-difluoro-4-((S*)-3,3,3-trifluoro-2-methylpropyl)phenyl)-1-ethyl-N-(((1s,4R)-1-hydroxy-4-(methylsulfonyl)cyclohexyl)methyl)-1H-pyrazole-3-carboxamide] |  | 7.10 | inhibition at 2 µM ([1]; HEK-293T): 69%; pKd ([2]; ThermoFluor® Assay, Kd): 7.80 |
| CCn1nc(C(=O)NC[C@H]2CC[C@H](S(C)(=O)=O)CC2)c(Cl)c1-c1ccc(CCC(F)(F)F)cc1C(F)(F)F [Example 171, 4-Chloro-1-ethyl-N-(((1r,4r)-4-(methylsulfonyl)cyclohexyl)methyl)-5-(2-(trifluoromethyl)-4-(3,3,3-trifluoropropyl)phenyl)-1H-pyrazole-3-carboxamide] | 7.85 | 6.36 | inhibition at 2 µM ([1]; HEK-293T): 24% |
| CCn1nc(C(=O)NC[C@]2(O)CC[C@@H](S(C)(=O)=O)CC2)c(Cl)c1-c1ccc(C2(O)CCC(C(F)(F)F)CC2)cc1OC(F)F (single isomer, unassigned) [Example 113, 4-Chloro-5-(2-(difluoromethoxy)-4-((1r*,4r*)-1-hydroxy-4-(trifluoromethyl)cyclohexyl)phenyl)-1-ethyl-N-(((1s,4s)-1-hydroxy-4-(methylsulfonyl)cyclohexyl)methyl)-1H-pyrazole-3-carboxamide] |  | 7.21 | inhibition at 3 µM [1, 7]: 88%; pKd ([2]; ThermoFluor® Assay, Kd): 6.92 |
| CCn1nc(C(=O)NC[C@H]2CC[C@H](S(=O)(=O)NC)CC2)c(Cl)c1-c1ccc(CC(C)(C)C(F)(F)F)cc1OC(F)F [Example 50, 4-Chloro-5-(2-(difluoromethoxy)-4-(3,3,3-trifluoro-2,2-dimethylpropyl)phenyl)-1-ethyl-N-(((1r,4r)-4-(N-methylsulfamoyl)cyclohexyl)methyl)-1H-pyrazole-3-carboxamide] | 10.00 |  | pIC50 [1, 4]: 8.52 |
| CCn1nc(C(=O)NC[C@]2(C(N)=O)CC[C@@H](S(C)(=O)=O)CC2)c(Cl)c1-c1ccc(N[C@H](C)C(F)(F)F)cc1OC [Example 35, N-(((1s,4S)-1-carbamoyl-4-(methylsulfonyl)cyclohexyl)methyl)-4-chloro-1-ethyl-5-(2-methoxy-4-(((R)-1,1,1-trifluoropropan-2-yl)amino)phenyl)-1H-pyrazole-3-carboxamide] | 7.47 | 6.14 | inhibition at 6 µM ([1]; HEK-293T, read-out: RORγt (FL) Reporter Assay A or B, % inhibition @ 6 μM, 6 μM compound concentration): 102% |

The next lines start with results.

| pKd [2, 5] | pIC50 [1, 6] | Compound | also measured |
| --- | --- | --- | --- |
|  | 7.43 | C[C@H](Cc1ccc(-c2c(Cl)c(C(=O)NC[C@]3(O)CC[C@@H](S(C)(=O)=O)CC3)nn2C)c(OC(F)F)c1)C(F)(F)F (single isomer, unassigned) [Example 152, 4-Chloro-5-(2-(difluoromethoxy)-4-((R*)-3,3,3-trifluoro-2-methylpropyl)phenyl)-N-(((1s,4S)-1-hydroxy-4-(methylsulfonyl)cyclohexyl)methyl)-1-methyl-1H-pyrazole-3-carboxamide] | inhibition at […] ([1]; HEK-293T, 0.33 μM compound concentration (footnote *****)): 72%; pKd ([2]; ThermoFluor® Assay, Kd): 8.10 |
| 8.66 | 8.14 | CCn1nc(C(=O)NC[C@H]2CC[C@H](S(C)(=O)=O)CC2)c(Cl)c1-c1ccc(CC(C)(C)C(F)(F)F)cc1F [Example 177, 4-Chloro-1-ethyl-5-(2-fluoro-4-(3,3,3-trifluoro-2,2-dimethylpropyl)phenyl)-N-(((1r,4r)-4-(methylsulfonyl)cyclohexyl)methyl)-1H-pyrazole-3-carboxamide] | inhibition at […] [1, 8]: 77% |
| 9.62 | 8.43 | CCn1nc(C(=O)NC[C@]2(CO)CC[C@@H](S(C)(=O)=O)CC2)c(Cl)c1-c1ccc(CC(C)(C)C(F)(F)F)cc1OC(F)F [Example 91, 4-Chloro-5-(2-(difluoromethoxy)-4-(3,3,3-trifluoro-2,2-dimethylpropyl)phenyl)-1-ethyl-N-(((1s*,4s*)-1-(hydroxymethyl)-4-(methylsulfonyl)cyclohexyl)methyl)-1H-pyrazole-3-carboxamide] | inhibition at 1 µM ([1]; HEK-293T): 99% |
|  | 8.38 | CCn1nc(C(=O)NC[C@@H]2CC[C@@H](S(C)(=O)=O)C[C@H]2O)c(Cl)c1-c1ccc(CC(C)(C)C(F)(F)F)cc1OC(F)F (single isomer, unassigned) [Example 22, 4-Chloro-5-(2-(difluoromethoxy)-4-(3,3,3-trifluoro-2,2-dimethylpropyl)phenyl)-1-ethyl-N-(((1S*,2R*,4R*)-2-hydroxy-4-(methylsulfonyl)cyclohexyl)methyl)-1H-pyrazole-3-carboxamide] | inhibition at 1 µM ([1]; HEK-293T): 100%; pKd ([2]; ThermoFluor® Assay, Kd): 9.36 |
| 9.00 | 7.72 | CCn1nc(C(=O)NC[C@H]2CC[C@H](S(C)(=O)=O)CC2)c(Cl)c1-c1ccc(CC(C)(C)C(F)(F)F)cc1C [Example 182, 4-Chloro-1-ethyl-5-(2-methyl-4-(3,3,3-trifluoro-2,2-dimethylpropyl)phenyl)-N-(((1r,4r)-4-(methylsulfonyl)cyclohexyl)methyl)-1H-pyrazole-3-carboxamide] | inhibition at […] [1, 8]: 81% |
| 8.07 | 7.62 | CCn1nc(C(=O)NC[C@]2(O)CC[C@@H](S(C)(=O)=O)CC2)c(Cl)c1-c1ccc(CC(C)(C)C(F)(F)F)cc1 [Example 167, 4-Chloro-1-ethyl-N-(((1s,4s)-1-hydroxy-4-(methylsulfonyl)cyclohexyl)methyl)-5-(4-(3,3,3-trifluoro-2,2-dimethylpropyl)phenyl)-1H-pyrazole-3-carboxamide] | inhibition at 0.67 µM ([1]; HEK-293T): 83% |
| 9.20 | 8.48 | CCn1nc(C(=O)NC[C@]2(O)CC[C@@H](S(C)(=O)=O)CC2)c(Cl)c1-c1ccc(CC(C)(C)C(F)(F)F)cc1C(F)(F)F [Example 163, 4-Chloro-1-ethyl-N-(((1s,4s)-1-hydroxy-4-(methylsulfonyl)cyclohexyl)methyl)-5-(4-(3,3,3-trifluoro-2,2-dimethylpropyl)-2-(trifluoromethyl)phenyl)-1H-pyrazole-3-carboxamide] | inhibition at […] [1, 8]: 78% |
